According to patent publication US8282688B2, “Laccase mediators and methods of use” (Danisco US Inc., priority 2006, dated 2012):
Several values for one entry are separate records, joined by “and”; a condition that tells them apart may be missing. Equal entries are not always repeated.

Key:
Type in all cases: biochemical
[1] = test system: Thielavia sp. laccase (Ecostone LCC10); assay: Bleaching of solubilized indigo, Thielavia sp. laccase with mediators (Example 2); conditions: for ΔA600 (change in absorbance at 600 nm relative to control): laccase 10 ppm, pH 5, 50° C., 2 hours, n = 2
Description: An assay for the bleaching of the solubilized indigo substrate by laccase/mediator combinations was performed in a 96-well microtitre plate as follows
(§1) A saturated solution of indigo in N-methylpyrrolidone (NMP) was prepared by stirring indigo (30 mg) in NMP (10 ml) at room temperature for 5 hours. The NMP solution was diluted 10-fold into an aqueous buffer solution resulting in a blue solution. For example, dilution into 50 mM sodium acetate buffer at pH 5, or 50 mM sodium phosphate buffer at pH 7. Solutions were shaken well immediately before use.
(§2) The assay for the bleaching of the solubilized indigo substrate was performed in a 96-well microtitre plate whereby each well received the soluble indigo solution in 50 mM sodium acetate buffer at pH 5 (180 uL), laccase (10 ppm enzyme) and mediator solution (from a 20 mM stock solution in methanol). The total volume of each well was adjusted to 200 uL with deionzed water. A control containing laccase only was run in duplicate. The plate was sealed and incubated at 50° C. for 2 hours at 800 rpm on a heated agitator (Thermomixer, Eppendorf). Following this period, the plates were unsealed and a solution of ascorbic acid (20 uL of a 10% aqueous solution) added to each well in order to reduce the oxidized forms of the mediators. The extent of indigo bleaching was then assessed by determining the absorbance for each well at 600 nm using a microtitre plate reader. The lower the absorbance reading, the greater the extent of indigo bleaching.

[2] = test system: Cerrena sp. laccase; assay: Soluble indigo bleaching at two pH values, Cerrena sp. laccase (Example 3)
Description: as §1, §2
(§3) Laccases derived from Myceliophtora (Denilite® II, Novozymes, Bagsvaerd, Denmark), Thielavia (Ecostone LCC10, AB enzymes, Darmstadt, Germany) and Cerrena sp. were assessed for their ability to bleach solubilized indigo in conjunction with low molecular weight mediators at two pH values.
(§4) Bleaching of solubilized indigo in 96-well microtitre plates was performed as described in Example 1, using 3 different laccases at pH values of 5 and 7.

[3] = test system: Thielavia laccase (Ecostone LCC10); assay: Soluble indigo bleaching at two pH values, Thielavia laccase (Example 3)
Description: as §1, §2, §3, §4

[4] = test system: Myceliophtora laccase (Denilite II); assay: Soluble indigo bleaching at two pH values, Myceliophtora laccase (Example 3)
Description: as §1, §2, §3, §4

[5] = test system: C. unicolor laccase; assay: Bleaching of denim swatches with C. unicolor laccase (Example 4); set-up: key to ΔL Denim swatch Frontside / Δb Denim swatch Frontside / ΔL Denim swatch Backside / Δb Denim swatch Backside / Δa Denim swatch Backside / Δa Denim swatch Frontside: difference between initial and final CIE L*a*b* values; key to ΔE (total color difference) Denim swatch Backside / ΔE (total color difference) Denim swatch Frontside: ΔE = (ΔL²+Δa²+Δb²)^1/2 from CIE L*a*b* before/after bleaching
Description: Denim legs (made out of sulfur bottom/indigo dyed denim fabric from Cone Mill, style number 1662P) were pretreated with IndiAge® 2XL at a dose of 1 gram per liter in a 50 lb lab scale tumbling washer. The liquor ratio was 6 to 1 (5 kg substrate in 30 liters of water) and the treatment was performed at 55° C. at pH 4.5 for 1 hour. A warm rinse followed the cellulase treatment, after which the fabric was dried in a tumble dryer. A punch press was used to cut ⅝ inch denim disks from IndiAge® 2XL pretreated denim legs. Each denim disk is pre read with a Chroma Meter CR-200 by Minolta in order to determine the CIE L*a*b* values of both the front and backside of the fabric disk.
One denim disk is placed in each well of two duplicate 12 well micro-titer plates. Each well received C. unicolor laccase (20 uL of 1/20 dilution, approx. 20 ppm), mediator (200, 100, 50 or 20 uL of a 20 mM stock solution in methanol) and 50 mM potassium phosphate buffer, pH 6 for a total volume of 2 mL/well. The mediators were methyl syringate (MS), 4-cyano-2,6-dimethoxyphenol (SN) and 3,4,5-trimethoxyphenol (TMP). The plates were sealed and incubated at 50° C. for 2 hours at 150 rpm in a standard incubator. Following this period, the swatches were removed from the plates and carefully placed on a filter paper in a Buchner funnel and washed with copious amounts of water, followed by drying of the residual water under high vacuum overnight. The swatches were then re-read with the chromometer in order to determine the CIE L*a*b* values of both the front and backside of the disk following bleaching. The total color difference (ΔE) is calculated from the difference between the initial and final CIE L*a*b* values according to the formula ΔE=(ΔL^2+Δa^2+Δb^2)^1/2 The total color differences (ΔE) as a function of mediator concentration are plotted in FIGS. 5 and 6.

[6] = mediator 50 mM Concentration (head)
[7] = mediator 500 mM Concentration (head)
[8] = lower mediator concentration of 50 uM
[9] = mediator 200 uM, laccase 20 ppm, pH 6, 50° C., 2 hours
[10] = mediator 500 uM, laccase 20 ppm, pH 6, 50° C., 2 hours
[11] = mediator 1000 uM, laccase 20 ppm, pH 6, 50° C., 2 hours

| Structure (SMILES) | ΔA600 (change in absorbance at 600 nm relative to control) [1, 6] | ΔA600 (change in absorbance at 600 nm relative to control) [1, 7] | ΔA600 Cerrena ([2]; pH 5, mediator 250 uM) | ΔA600 Cerrena ([2]; pH 7, mediator 250 uM) | ΔA600 Thielavia ([3]; pH 5, mediator 250 uM) | ΔA600 Thielavia ([3]; pH 7, mediator 250 uM) | ΔA600 Myceliophtora ([4]; pH 5, mediator 250 uM) | ΔA600 Myceliophtora ([4]; pH 7, mediator 250 uM) | further results |
| --- | --- | --- | --- | --- | --- | --- | --- | --- | --- |
| COC(=O)c1cc(OC)c(OC(C)=O)c(OC)c1 [AMS, methyl 4-acetyl syringate] |  |  | 0.028 | 0.077 | 0.100 | 0.087 | 0.117 | 0.078 |  |
| CCn1c(=NN=c2sc3cc(S(=O)(=O)O)ccc3n2CC)sc2cc(S(=O)(=O)O)ccc21 [ABTS] | 0.174 | 0.235 | 0.329 | 0.215 | 0.234 | 0.145 | 0.267 | 0.155 | effectiveness as mediator for indigo bleaching [1, 8]: most effective mediator; effectiveness as mediator for indigo bleaching ([1]; mediator concentration of 500 uM): most effective mediator |
| COc1cc(C=O)cc(OC)c1O [Syringaldehyde, syringaldehyde] | 0.092 | 0.132 |  |  |  |  |  |  |  |
| COc1cc(O)cc(OC)c1OC [TMP, 3,4,5-trimethoxyphenol, reference compound] |  |  |  |  |  |  |  |  | effectiveness as mediator for denim swatch bleaching ([5]; C. unicolor laccase 20 ppm, 200-2000 uM mediator): not an effective mediator; ΔE (total color difference) Denim swatch Backside [5, 9]: 0.35 and 0.57; ΔE (total color difference) Denim swatch Frontside [5, 9]: 0.96 and 0.77; Δa Denim swatch Frontside [5, 9]: 0.29 and 0.33; ΔE (total color difference) Denim swatch Backside [5, 10]: 0.51 and 0.30; ΔE (total color difference) Denim swatch Frontside [5, 10]: 0.64 and 0.63; ΔL Denim swatch Frontside [5, 10]: −0.61; ΔE (total color difference) Denim swatch Backside [5, 11]: 0.45 and 0.51; ΔE (total color difference) Denim swatch Frontside [5, 11]: 0.51 and 0.46; Δa Denim swatch Backside [5, 11]: 0.22 and 0.12; ΔE (total color difference) Denim swatch Backside ([5]; mediator 2000 uM, laccase 20 ppm, pH 6, 50° C., 2 hours): 0.34 |

Second part, led by results:

| ΔA600 (change in absorbance at 600 nm relative to control) [1, 6] | ΔA600 (change in absorbance at 600 nm relative to control) [1, 7] | ΔA600 Cerrena ([2]; pH 5, mediator 250 uM) | ΔA600 Cerrena ([2]; pH 7, mediator 250 uM) | ΔA600 Thielavia ([3]; pH 5, mediator 250 uM) | ΔA600 Thielavia ([3]; pH 7, mediator 250 uM) | ΔA600 Myceliophtora ([4]; pH 5, mediator 250 uM) | ΔA600 Myceliophtora ([4]; pH 7, mediator 250 uM) | Structure (SMILES) | further results |
| --- | --- | --- | --- | --- | --- | --- | --- | --- | --- |
| 0.132 | 0.044 |  |  |  |  |  |  | O=C(O)CCCN1c2ccccc2Sc2ccccc21 [PTP, 10-(carboxypropyl)-phenothiazine] |  |
| 0.005 | 0.024 |  |  |  |  |  |  | COc1cc(C(=O)O)cc(OC)c1O [Syringic acid, syringic acid] | effectiveness as mediator for indigo bleaching [1, 8]: no more effectively than the control condition |
|  |  | 0.240 | 0.257 | 0.068 | 0.112 | 0.157 | 0.204 | COc1cc(C=CC(=O)O)cc(OC)c1O (stereo in doubt) [Sinapinic acid, sinapinic acid] |  |
| 0.103 | 0.181 |  |  |  |  |  |  | CNC(=O)c1cc(OC)c(O)c(OC)c1 [MSA, 4-(N-methylcarboxamido)-2,6-dimethoxyphenol] |  |
